Data on 15 molecules can be found in patent US12441768B2, “Compositions and methods for treating endometriosis” (EndoMet Biosciences, Inc., priority 2018, dated 2025).

Data set [1] deals with T1, β-catenin (Homo sapiens, UniProt P35222).
T1 sequence (P35222 1-781): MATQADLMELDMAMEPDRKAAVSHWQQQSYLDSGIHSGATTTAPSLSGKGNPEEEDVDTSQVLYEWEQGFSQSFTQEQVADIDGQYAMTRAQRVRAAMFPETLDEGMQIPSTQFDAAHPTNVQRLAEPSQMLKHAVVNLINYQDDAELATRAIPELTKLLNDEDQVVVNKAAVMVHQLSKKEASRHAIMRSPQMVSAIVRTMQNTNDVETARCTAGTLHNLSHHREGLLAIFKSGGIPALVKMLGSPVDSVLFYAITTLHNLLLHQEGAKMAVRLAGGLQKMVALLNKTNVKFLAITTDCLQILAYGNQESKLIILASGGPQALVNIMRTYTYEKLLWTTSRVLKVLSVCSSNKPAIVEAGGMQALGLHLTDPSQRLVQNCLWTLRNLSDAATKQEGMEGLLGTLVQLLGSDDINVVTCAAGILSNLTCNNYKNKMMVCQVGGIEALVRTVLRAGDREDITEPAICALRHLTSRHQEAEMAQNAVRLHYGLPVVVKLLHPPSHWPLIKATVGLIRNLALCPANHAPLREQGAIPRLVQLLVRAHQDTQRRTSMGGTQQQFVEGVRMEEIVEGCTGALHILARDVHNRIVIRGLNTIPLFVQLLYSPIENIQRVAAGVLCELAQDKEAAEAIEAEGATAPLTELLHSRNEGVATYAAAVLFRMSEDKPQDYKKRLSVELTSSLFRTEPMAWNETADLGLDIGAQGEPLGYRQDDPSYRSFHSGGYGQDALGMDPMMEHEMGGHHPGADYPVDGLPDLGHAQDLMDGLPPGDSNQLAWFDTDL
Nature of the data set: KD50 measurement using competitive fluorescence polarization (FP) with labelled TCF4. It is filed as binding. The note with it: fluorescence polarization, β-catenin; for Kd: read-out: β-Cat FP KD. The method in brief:
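Each compound competes against labelled TCF4 (5 nM) for 100 nM β-catenin at room temperature, tested over 10 nM to 30 uM. Signal: polarization at 470/520 nm excitation/emission. Three repeat experiments were performed.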

In data set [2] the target is Wnt-responsive promoter (TCF/LEF). As to the kind of experiment: Wnt-dependent luciferase reporter assay. It is filed as cell-based, murine. The method in brief:
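EC50 (uM) derived from inhibition of luminescence in Wnt3a-stimulated murine 3T3 cells expressing luciferase under a TCF/LEF promoter, with peptides added across a concentration range and vehicle as control.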

For data set [3] the following is noted: % Viability non-Wnt responsive cells.

The structures appear in SMILES notation. Where a SMILES comes first, the peptide text is derived from it.

With `CC[C@H](C)[C@@H]1NC(=O)[C@H](CC(C)C)NC(=O)[C@H](Cc2ccccc2)NC(=O)[C@H](Cc2c[nH]c3ccccc23)NC(=O)[C@@H](NC(C)=O)CC(=O)NCCCC[C@@H](C(=O)NCC(=O)O)NC(=O)[C@H](Cc2c[nH]c3ccccc23)NC(=O)[C@H](Cc2ccccc2)NC(=O)[C@H](CS)NC1=O` [compound 175] (HELM PEPTIDE1{[ac].D.W.F.L.I.C.F.W.K.G}$PEPTIDE1,PEPTIDE1,2:R3-10:R3$$$V2.0), in data set [1], the “β-Cat FP Hill slope” value was found to be 0.7 and the equilibrium dissociation constant (Kd) was in the range of 10 to 30 µM. The molecule further gave an EC50 in data set [2] of 7.5 to 15 µM. Moreover, in data set [3], the viability came out at 100%.

As for `CC[C@H](C)[C@@H]1NC(=O)[C@H](CC(C)C)NC(=O)[C@H](Cc2ccccc2)NC(=O)[C@H](Cc2c[nH]c3ccccc23)NC(=O)[C@H](CCSC)NC(=O)[C@@H](N)CCCCNC(=O)C[C@@H](C(=O)O)NC(=O)[C@H](Cc2c[nH]c3ccccc23)NC(=O)[C@H](Cc2ccccc2)NC(=O)[C@H](CS)NC1=O` [compound 170] (HELM PEPTIDE1{K.M.W.F.L.I.C.F.W.D}$PEPTIDE1,PEPTIDE1,1:R3-10:R3$$$V2.0), in data set [1], the “β-Cat FP Hill slope” value is given as 0.7 and the Kd was in the range of 1 to 10 µM. In data set [2], this molecule displayed an EC50 of 15 to 22.5 µM. Besides, in data set [3], the viability was 107%.

Turning to `CC[C@H](C)[C@@H]1NC(=O)[C@H](CC(C)C)NC(=O)[C@H](Cc2ccccc2)NC(=O)[C@H](Cc2c[nH]c3ccccc23)NC(=O)[C@H](CCSC)NC(=O)[C@@H](N)CC(=O)NCCCC[C@@H](C(=O)NCC(=O)O)NC(=O)[C@H](Cc2c[nH]c3ccccc23)NC(=O)[C@H](Cc2ccccc2)NC(=O)[C@H](CS)NC1=O` [compound 177] (HELM PEPTIDE1{D.M.W.F.L.I.C.F.W.K.G}$PEPTIDE1,PEPTIDE1,1:R3-10:R3$$$V2.0), in data set [1], the Kd is above 30 µM. Besides, the EC50 in data set [2] lay in the range of 7.5 to 15 µM. The viability in data set [3] was found to be 98.6%.

In the case of `CC[C@H](C)[C@H](NC(=O)[C@H](CC(C)C)NC(=O)[C@H](Cc1ccccc1)NC(=O)[C@H](Cc1c[nH]c2ccccc12)NC(=O)[C@@H](NC(=O)[C@H](CCCNC(=N)N)NC(=O)[C@H](CO)NC(=O)[C@@H](N)CCSC)C(C)C)C(=O)N[C@@H](CO)C(=O)N[C@@H](Cc1ccccc1)C(=O)N[C@@H](Cc1c[nH]c2ccccc12)C(=O)NCC(=O)O` [compound 64] (H-MSRVWFLISFWG-OH), in data set [1], the “β-Cat FP Hill slope” value is 0.7 and the equilibrium dissociation constant (Kd) fell in the range of 1 to 10 µM. In data set [2], this molecule showed an EC50 of 7.5 to 15 µM. In data set [3], the viability was found to be 104%.

For the molecule `CC[C@H](C)[C@H](NC(=O)[C@H](CC(C)C)NC(=O)[C@H](Cc1ccccc1)NC(=O)[C@H](Cc1c[nH]c2ccccc12)NC(=O)[C@H](CCCCN)NC(=O)[C@H](CCCNC(=N)N)NC(=O)[C@H](CO)NC(=O)[C@@H](N)CCSC)C(=O)N[C@@H](CO)C(=O)N[C@@H](Cc1ccccc1)C(=O)N[C@@H](Cc1c[nH]c2ccccc12)C(N)=O` [compound 87] (H-MSRKWFLISFW-NH2), the dissociation constant (Kd) in data set [1] was above 30 µM. Also, in data set [2], the EC50 is above 30 µM. Further, in data set [3], the viability came out at 114%.

`CC[C@H](C)[C@H](NC(=O)[C@H](CC(C)C)NC(=O)[C@H](Cc1ccccc1)NC(=O)[C@H](Cc1c[nH]c2ccccc12)NC(=O)[C@H](Cc1c[nH]cn1)NC(=O)[C@H](CCCNC(=N)N)NC(=O)[C@H](CO)NC(=O)[C@@H](N)CCCCN)C(=O)N[C@@H](CO)C(=O)N[C@@H](Cc1ccccc1)C(=O)N[C@@H](Cc1c[nH]c2ccccc12)C(N)=O` [compound 94] (H-KSRHWFLISFW-NH2): in data set [1], the equilibrium dissociation constant (Kd) was above 30 µM. Besides, the half-maximal effective concentration (EC50) in data set [2] was above 30 µM. In addition, in data set [3], the viability was 118%.

For the molecule `CC[C@H](C)[C@H](NC(=O)[C@H](CC(C)C)NC(=O)[C@H](Cc1ccccc1)NC(=O)[C@H](Cc1c[nH]c2ccccc12)NC(=O)[C@@H](N)CCSC)C(=O)N[C@@H](C)C(=O)N[C@@H](Cc1ccccc1)C(=O)N[C@@H](Cc1c[nH]c2ccccc12)C(=O)NCC(=O)O` [compound 159] (H-MWFLIAFWG-OH), the Kd in data set [1] is above 30 µM. In data set [2], this molecule gave an EC50 below 7.5 µM. In data set [3], the viability is 107%.

For `CC[C@H](C)[C@H](NC(=O)[C@H](CC(C)C)NC(=O)[C@H](Cc1ccccc1)NC(=O)[C@H](Cc1c[nH]c2ccccc12)NC(=O)[C@@H](N)CCSC)C(=O)N[C@@H](CS)C(=O)N[C@@H](Cc1cncn1C)C(=O)N[C@@H](Cc1c[nH]c2ccccc12)C(=O)NCC(=O)O` [compound 135] (HELM PEPTIDE1{M.W.F.L.I.C.[Cn1cncc1C[C@H](N[*:1])C(=O)[*:2]].W.G}$$$$V2.0), the “β-Cat FP Hill slope” value in data set [1] was determined as 0.7. In data set [2], this molecule registered a concentration for a half-maximal effect (EC50) of 7.5 to 15 µM. Besides, in data set [3], the viability was found to be 107%.

On to `CC[C@H](C)[C@H](NC(=O)[C@H](CC(C)C)NC(=O)[C@@H](NC(=O)[C@H](Cc1c[nH]c2ccccc12)NC(=O)[C@@H](N)Cc1c[nH]cn1)[C@@H](C)CC)C(=O)N[C@@H](CO)C(=O)N[C@@H](Cc1ccccc1)C(=O)N[C@@H](Cc1c[nH]c2ccccc12)C(=O)NCC(=O)O` [compound 126] (H-HWILISFWG-OH), for which, in data set [1], the “β-Cat FP Hill slope” value came to 0.99 and the Kd is below 0.4 µM. This molecule also registered an EC50 in data set [2] below 7.5 µM. Also, in data set [3], the viability worked out at 111%.

In the case of `CC[C@H](C)[C@H](NC(=O)[C@H](CC(C)C)NC(=O)[C@H](Cc1ccccc1)NC(=O)[C@H](Cc1c[nH]c2ccccc12)NC(=O)[C@@H](N)CCSC)C(=O)N[C@@H](CO)C(=O)N[C@@H](Cc1ccccc1)C(=O)N[C@@H](Cc1c[nH]c2ccccc12)C(=O)NCC(N)=O` [compound 108] (H-MWFLISFWG-NH2), in data set [1], the “β-Cat FP Hill slope” value is 0.7 and the dissociation constant Kd lay within 0.4 to 1 µM. Besides, the EC50 in data set [2] was 7.5 to 15 µM. Moreover, the viability in data set [3] came to 102%.

In the case of `CC[C@H](C)[C@H](NC(=O)[C@H](CC(C)C)NC(=O)[C@H](Cc1ccccc1)NC(=O)[C@H](Cc1c[nH]c2ccccc12)NC(=O)[C@H](CCSC)NC(=O)[C@H](CCCNC(=N)N)NC(=O)[C@H](CO)NC(=O)[C@@H](N)Cc1ccc(O)cc1)C(=O)N[C@@H](CO)C(=O)N[C@@H](Cc1ccccc1)C(=O)N[C@@H](Cc1c[nH]c2ccccc12)C(N)=O` [compound 82] (H-YSRMWFLISFW-NH2), the Kd in data set [1] is above 30 µM. This molecule gave a concentration for a half-maximal effect (EC50) in data set [2] above 30 µM. In data set [3], the viability was found to be 84%.

On to `CC[C@H](C)[C@H](NC(=O)[C@H](CC(C)C)NC(=O)C(C)(Cc1ccccc1)NC(=O)[C@H](Cc1c[nH]c2ccccc12)NC(=O)[C@@H](N)CCSC)C(=O)N[C@@H](CO)C(=O)N[C@@H](Cc1ccccc1)C(=O)N[C@@H](Cc1c[nH]c2ccccc12)C(=O)NCC(=O)O` (some centres unmarked) [compound 133] (HELM PEPTIDE1{M.W.[CC(Cc1ccccc1)(N[*:1])C(=O)[*:2]].L.I.S.F.W.G}$$$$V2.0), for which, in data set [1], the “β-Cat FP Hill slope” value came to 3 and the Kd was below 0.4 µM. The same molecule returned an EC50 in data set [2] above 30 µM. Also, the viability in data set [3] worked out at 95.4%.

`CC[C@H](C)[C@@H]1NC(=O)[C@H](CC(C)C)NC(=O)[C@H](Cc2ccccc2)NC(=O)[C@H](Cc2c[nH]c3ccccc23)NC(=O)[C@@H](NC(C)=O)CCCCNC(=O)CC[C@@H](C(=O)O)NC(=O)[C@H](Cc2c[nH]c3ccccc23)NC(=O)[C@H](C)NC(=O)[C@H](CO)NC1=O` [compound 187] (HELM PEPTIDE1{[ac].K.W.F.L.I.S.A.W.E}$PEPTIDE1,PEPTIDE1,2:R3-10:R3$$$V2.0): in data set [1], the “β-Cat FP Hill slope” value was determined as 0.7 and the Kd lay in the range of 1 to 10 µM. This molecule also had an EC50 in data set [2] of 7.5 to 15 µM. Further, the viability in data set [3] is 90.3%.

Turning to `CC[C@H](C)[C@H](NC(=O)[C@H](CC(C)C)NC(=O)[C@H](Cc1ccccc1)NC(=O)[C@H](Cc1c[nH]c2ccccc12)NC(=O)[C@@H](N)CCSC)C(=O)N[C@@H](CO)C(=O)N[C@@H](CO)C(=O)N[C@@H](Cc1c[nH]c2ccccc12)C(=O)O` [compound 96] (H-MWFLISSW-OH), in data set [1], the “β-Cat FP Hill slope” value is on record as 0.7 and the Kd lay in the range of 10 to 30 µM. In data set [2], this molecule registered an EC50 of 7.5 to 15 µM. Besides, the viability in data set [3] was found to be 97.3%.

`CC[C@H](C)[C@H](NC(=O)[C@H](CC(C)C)NC(=O)[C@H](Cc1ccccc1)NC(=O)[C@H](Cc1c[nH]c2ccccc12)NC(=O)[C@@H](N)CCSC)C(=O)N[C@@H](CO)C(=O)N[C@@H](Cc1ccccc1)C(=O)N[C@@H](Cc1c[nH]c2ccccc12)C(=O)N[C@@H](CCCNC(=N)N)C(=O)NCC(=O)O` [compound 49] (H-MWFLISFWRG-OH): in data set [1], the equilibrium dissociation constant (Kd) is above 30 µM. In data set [2], this molecule came in with an EC50 below 7.5 µM. The viability in data set [3] is 103%.
